Read-outs that look alike come from different tables or passages of the source.
Columns and labels:
[1] = Example 1: plasma pharmacokinetics (Cmax, Tmax, AUC0-6 hr) of belumosudil and metabolites; format: in vivo, human; settings: for Tmax: human, oral, read-out: Time of the Maximum Observed Plasma Concentration (Tmax), Median (Full Range); for Maximum Observed Plasma Concentration (Cmax), Geometric Mean (Geometric Coefficient of Variation) / Tmax: plasma
Description: Cmax was the maximum observed plasma concentration, obtained by a non-compartmental analysis. […] Timeframe: Cycles 1 and 2: pre-dose (0 hour), 1, 2, 3, 4, 5, and 6 hours post-dose on Day 1. […] Here, ‘number analyzed’=participants with available data for each specified category.
Tmax was defined as time to reach maximum observed plasma concentration, obtained by a non-compartmental analysis. […] Timeframe: Cycles 1 and 2: pre-dose (0 hour), 1, 2, 3, 4, 5, and 6 hours post-dose on Day 1. Analysis was performed on PK population. Here, ‘number analyzed’=participants with available data for each specified category.
AUC0-6 hr was defined as area under the plasma concentration versus time curve from time 0 to 6 hours post-dose, obtained by a non-compartmental analysis from the concentration-time data. […] Timeframe: Cycles 1 and 2: pre-dose (0 hour), 1, 2, 3, 4, 5, and 6 hours post-dose on Day 1. Analysis was performed on PK population. Here, ‘number analyzed’=participants with available data for each specified category.

[2] = Example 2: safety (AE, SAE, relative dose intensity); format: in vivo
Description: All responses were assessed by the study site investigators.

patients with cGVHD = assay: Example 1: time to next therapy, failure-free survival, overall survival; format: in vivo, human
Description: Time to next therapy (TTNT). The TTNT was defined as the time (in months) from first treatment to the time of new systemic cGVHD treatment. TTNT was censored by last response assessment or long term follow up assessment, whichever was earlier. Kaplan-Meier survival method was used for the analysis. […] Analysis was performed on mITT population.
Failure-free survival was defined as the time (in months) from first dose of study drug to either the start of another new systemic treatment for cGVHD, relapse of the underlying disease or death. If no such events happened, FFS was censored by last response assessment or long term follow up assessment, whichever was the latest and available. Kaplan-Meier survival method was used for the analysis. Analysis was performed on mITT population.
Overall survival was defined as the time (in months) from first dose of study drug to the death due to any reason. If there was no death, OS was censored by last visit, last long term follow-up, or study cutoff date, whichever was the latest. Kaplan-Meier survival method was used for the analysis.

[3] = Cohort 1: Belumosudil 200 mg QD, Cycle 1 Day 1
[4] = Cohort 1: Belumosudil 200 mg QD, Cycle 2 Day 1
[5] = Cohort 2: Belumosudil 200 mg BID, Cycle 1 Day 1
[6] = Cohort 2: Belumosudil 200 mg BID, Cycle 2 Day 1
[7] = Cohort 3: Belumosudil 400 mg QD, Cycle 1 Day 1
[8] = Cohort 3: Belumosudil 400 mg QD, Cycle 2 Day 1

## CC(C)NC(=O)COc1cccc(-c2nc(Nc3ccc4[nH]ncc4c3)c3ccccc3n2)c1 [Belumosudil, 2-{3-[4-(1H-indazol-5-ylamino)-2-quinazolinyl]phenoxy}-N-(propan-2-yl) acetamide]
[1]; [3]
  Area Under the Plasma Concentration Versus Time Curve From Time 0 to 6 Hours Post-dose (AUC0-6 hr), Geometric Mean (Geometric Coefficient of Variation): 8350 hours*nanograms per milliliter
  Maximum Observed Plasma Concentration (Cmax), Geometric Mean (Geometric Coefficient of Variation): 2500 (60.1%) nanograms per milliliter
[1]; [4]
  Area Under the Plasma Concentration Versus Time Curve From Time 0 to 6 Hours Post-dose (AUC0-6 hr), Geometric Mean (Geometric Coefficient of Variation): 7090 (95.9%) hours*nanograms per milliliter
  Maximum Observed Plasma Concentration (Cmax), Geometric Mean (Geometric Coefficient of Variation): 2020 (101%) nanograms per milliliter
[1]; [5]
  Area Under the Plasma Concentration Versus Time Curve From Time 0 to 6 Hours Post-dose (AUC0-6 hr), Geometric Mean (Geometric Coefficient of Variation): 4960 hours*nanograms per milliliter
  Maximum Observed Plasma Concentration (Cmax), Geometric Mean (Geometric Coefficient of Variation): 1400 (98.5%) nanograms per milliliter
[1]; [6]
  Area Under the Plasma Concentration Versus Time Curve From Time 0 to 6 Hours Post-dose (AUC0-6 hr), Geometric Mean (Geometric Coefficient of Variation): 7190 (115%) hours*nanograms per milliliter
  Maximum Observed Plasma Concentration (Cmax), Geometric Mean (Geometric Coefficient of Variation): 1890 (120%) nanograms per milliliter
[1]; [7]
  Area Under the Plasma Concentration Versus Time Curve From Time 0 to 6 Hours Post-dose (AUC0-6 hr), Geometric Mean (Geometric Coefficient of Variation): 11500 hours*nanograms per milliliter
  Maximum Observed Plasma Concentration (Cmax), Geometric Mean (Geometric Coefficient of Variation): 2960 (69.7%) nanograms per milliliter
[1]; [8]
  Area Under the Plasma Concentration Versus Time Curve From Time 0 to 6 Hours Post-dose (AUC0-6 hr), Geometric Mean (Geometric Coefficient of Variation): 12000 hours*nanograms per milliliter
  Maximum Observed Plasma Concentration (Cmax), Geometric Mean (Geometric Coefficient of Variation): 3270 (63.0%) nanograms per milliliter
[1]; 200 mg, Cohort 1: Belumosudil 200 mg QD, Cycle 1 Day 1
  Tmax: 2.12 h
[1]; 200 mg, Cohort 1: Belumosudil 200 mg QD, Cycle 2 Day 1
  Tmax: 2.53 h
[1]; 200 mg, Cohort 2: Belumosudil 200 mg BID, Cycle 1 Day 1
  Tmax: 3.43 h
[1]; 200 mg, Cohort 2: Belumosudil 200 mg BID, Cycle 2 Day 1
  Tmax: 2.47 h
[1]; 400 mg, Cohort 3: Belumosudil 400 mg QD, Cycle 1 Day 1
  Tmax: 3.03 h
[1]; 400 mg, Cohort 3: Belumosudil 400 mg QD, Cycle 2 Day 1
  Tmax: 2.66 h
[2]; 200 mg daily (n = 66)
  ALT increased: 4 (6) n (%)
  AST increased: 5 (8) n (%)
  Any AE: 65 (99) n (%)
  Bilirubin conjugated increased: 1 (2) n (%)
  Blood alkaline phosphatase increased: 4 (6) n (%)
  Cough, all grades: 20 (30) n (%)
  Deaths: 8 (12) n (%)
  Diarrhea, all grades: 23 (35) n (%)
  Drug-related AEs: 49 (74) n (%)
  Drug-related SAEs: 5 (8) n (%)
  Dyspnea, all grades: 21 (32) n (%)
  Fatigue, all grades: 30 (46) n (%)
  GGT increased: 6 (9) n (%)
  Grade ≥3 AEs: 37 (56) n (%)
  Headache, all grades: 13 (20) n (%)
  Hyperglycemia, Grade ≥3: 3 (5) n (%)
  Hypertension, Grade ≥3: 4 (6) n (%)
  Hypoalbuminemia: 2 (3) n (%)
  LFT increased: 1 (2) n (%)
  Liver-related AEs: 12 (18) n (%)
  Muscle spasms, all grades: 13 (20) n (%)
  Nausea, all grades: 23 (35) n (%)
  Peripheral edema, all grades: 17 (26) n (%)
  Pneumonia, Grade ≥3: 6 (9) n (%)
  SAEs: 27 (41) n (%)
  Transaminases increased: 1 (2) n (%)
  Upper respiratory tract infection, all grades: 17 (26) n (%)
  Vomiting, all grades: 18 (27) n (%)
[2]; 200 mg twice daily (n = 66)
  ALT increased: 7 (11) n (%)
  AST increased: 8 (12) n (%)
  Any AE: 66 (100) n (%)
  Bilirubin conjugated increased: 0 n (%)
  Blood alkaline phosphatase increased: 6 (9) n (%)
  Cough, all grades: 17 (26) n (%)
  Deaths: 6 (9) n (%)
  Diarrhea, all grades: 21 (32) n (%)
  Drug-related AEs: 40 (61) n (%)
  Drug-related SAEs: 2 (3) n (%)
  Dyspnea, all grades: 12 (18) n (%)
  Fatigue, all grades: 20 (30) n (%)
  GGT increased: 10 (15) n (%)
  Grade ≥3 AEs: 34 (52) n (%)
  Headache, all grades: 18 (27) n (%)
  Hyperglycemia, Grade ≥3: 3 (5) n (%)
  Hypertension, Grade ≥3: 4 (6) n (%)
  Hypoalbuminemia: 2 (3) n (%)
  LFT increased: 0 n (%)
  Liver-related AEs: 19 (29) n (%)
  Muscle spasms, all grades: 13 (20) n (%)
  Nausea, all grades: 18 (27) n (%)
  Peripheral edema, all grades: 13 (20) n (%)
  Pneumonia, Grade ≥3: 4 (6) n (%)
  SAEs: 23 (35) n (%)
  Transaminases increased: 1 (2) n (%)
  Upper respiratory tract infection, all grades: 18 (27) n (%)
  Vomiting, all grades: 10 (15) n (%)
[2]; Total (N = 132)
  ALT increased: 11 (8) n (%)
  AST increased: 13 (10) n (%)
  Any AE: 131 (99) n (%)
  Bilirubin conjugated increased: 1 (1) n (%)
  Blood alkaline phosphatase increased: 10 (8) n (%)
  Cough, all grades: 37 (28) n (%)
  Diarrhea, all grades: 44 (33) n (%)
  Drug-related AEs: 89 (67) n (%)
  Drug-related SAEs: 7 (5) n (%)
  Dyspnea, all grades: 33 (25) n (%)
  Fatigue, all grades: 50 (38) n (%)
  GGT increased: 16 (12) n (%)
  Grade ≥3 AEs: 71 (54) n (%)
  Headache, all grades: 31 (24) n (%)
  Hyperglycemia, Grade ≥3: 6 (5) n (%)
  Hypertension, Grade ≥3: 8 (6) n (%)
  Hypoalbuminemia: 4 (3) n (%)
  LFT increased: 1 (1) n (%)
  Liver-related AEs: 31 (24) n (%)
  Muscle spasms, all grades: 26 (20) n (%)
  Nausea, all grades: 41 (31) n (%)
  Peripheral edema, all grades: 30 (23) n (%)
  Pneumonia, Grade ≥3: 10 (8) n (%)
  SAEs: 50 (38) n (%)
  Transaminases increased: 2 (2) n (%)
  Upper respiratory tract infection, all grades: 35 (27) n (%)
  Vomiting, all grades: 28 (21) n (%)
[2]; Total (N = 132), six died during LTFU (>28 days after last dose)
  Deaths: 14 (11) n (%)
[2]; in vivo
  Discontinued because of overall AEs: 21%
  Discontinued because of possible drug-related AEs: 12%
  Grade 3 or 4 hyperglycemia: 5%
  Grade 3 or 4 hypertension: 6%
  Grade 3 or 4 pneumonia: 8%
  Grade ≥3 anemia: 3%
  Grade ≥3 cytopenias: < 4%
  Grade ≥3 neutropenia: 2%
  Grade ≥3 thrombocytopenia: 2%
  Increased GGT (liver-related AE): 12%
  Median RDI: 99.7%
  SAE pneumonia, subjects: 7%
  Subjects who died during the study: Fourteen
  Subjects who received an RDI >95%: Eighty-one
  Subjects with >1 SAE: Thirty eight
  Subjects with increased liver function tests (LFTs): Twenty-four
[2]; unrelated to belumosudil
  Cases of Epstein-Barr viremia that required treatment: 1 case
  Cases of cytomegalovirus (CMV) reactivation: 1 case
[2]; unrelated to belumosudil, listed as belumosudil
  Cases of cytomegalovirus (CMV) reactivation: one
Patients with cGVHD
  FFS rate at 6 months: 76%
  FFS rate at 12 months: 47%
